# Data reported in US9387221B2, “SDF-1 binding nucleic acids and the use thereof in cancer treatment” (NOXXON Pharma AG, priority 2010, dated 2016).
# pIC50, pKd: −log10 of the molar value. [L-RNA-N] = L-ribonucleotide (mirror-image RNA, Spiegelmer), made from L-configured RNA phosphoramidites (N: the base); {PEG40k} = 40 kDa poly(ethylene glycol)
# Tests used:
# [1] = test system: biotinylated human D-SDF-1; assay: Direct pull-down binding assay; settings: aptamer (D-RNA), 37° C.; read-out: equilibrium binding constant KD, pull-down binding assay
# Experimental: The affinity of aptamers to biotinlayted human D-SDF-1 was measured in a pull-down binding assay format at 37° C. Aptamers were 5′-phosphate labeled by T4 polynucleotide kinase (Invitrogen, Karlsruhe, Germany) using [γ-^32P]-labeled ATP (Hartmann Analytic, Braunschweig, Germany). The specific radioactivity of labeled aptamers was 200,000-800,000 cpm/pmol. Aptamers were incubated after de- and renaturation at 10, 20, 30 or 40 pM concentration at 37° C. in selection buffer (20 mM Tris-HCl pH 7.4; 137 mM NaCl; 5 mM KCl; 1 mM MgCl2; 1 mM CaCl2; 0.1% [w/vol] Tween-20) together with varying amounts of biotinlayted human D-SDF-1 for 4-12 hours in order to reach equilibrium at low concentrations. Selection buffer was supplemented with 10 μg/ml human serum albumin (Sigma-Aldrich, Steinheim, Germany), and 10 μg/ml yeast RNA (Ambion, Austin, USA) in order to prevent adsorption of binding partners with surfaces of used plasticware or the immobilization matrix. The concentration range of biotinlayted human D-SDF-1 was set from 8 pM to 100 nM; total reaction volume was 1 ml. Peptide and peptide-aptamer complexes were immobilized on 1.5 μl Streptavidin Ultralink Plus particles (Pierce Biotechnology, Rockford, USA) which had been preequilibrated with selection buffer and resuspended in a total volume of 6 μl. Particles were kept in suspension for 30 min at the respective temperature in a thermomixer. Immobilized radioactivity was quantitated in a scintillation counter after detaching the supernatant and appropriate washing. The percentage of binding was plotted against the concentration of biotinlayted human D-SDF-1 and dissociation constants were obtained by using software algorithms (GRAFIT; Erithacus Software; Surrey U.K.) assuming a 1:1 stoichiometry.
# [2] = test system: biotinylated human D-SDF-1; assay: Competitive pull-down binding assay; settings: for binding affinity in competitive pull-down binding assay vs. 192-A10-001: aptamer level, reference 192-A10-001
# Experimental: In order to compare different D-SDF-1 binding aptamers, a competitive ranking assay was performed. For this purpose the most affine aptamer available was radioactively labeled (see above) and served as reference. […] An excess of de- and renatured non-labeled D-RNA aptamer variants was added to different concentrations (e.g. 2, 10, and 50 nM) with the labeled reference aptamer to parallel binding reactions. The aptamers to be tested competed with the reference aptamer for target binding, thus decreasing the binding signal in dependence of their binding characteristics.
# human SDF-1α = human SDF-1α (Homo sapiens, UniProt P48061); assay: Surface plasmon resonance measurement (Biacore 2000); assay type: binding; settings: Spiegelmer (L-RNA), 37° C.
# Chain of human SDF-1α (P48061 22-89): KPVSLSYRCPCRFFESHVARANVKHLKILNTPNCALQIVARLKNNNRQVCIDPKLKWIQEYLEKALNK
# Experimental: The Biacore 2000 instrument (Biacore AB, Uppsala, Sweden) was used to analyze binding of Spiegelmers to human SDF-1α. When coupling of human SDF-1α was to be achieved via amine groups, human SDF-1α was dialyzed against water for 1-2 h (Millipore VSWP mixed cellulose esters; pore size, […]) to remove interfering amines. CM4 sensor chips (Biacore AB, Uppsala, Sweden) were activated before protein coupling by a 35-μl injection of a 1:1 dilution of 0.4 M NHS and 0.1 M EDC at a flow of 5 μl/min. Human MCP-1 or human SDF-1α was then injected in concentrations of 0.1-1.5 μg/ml at a flow of 2 μl/min until the instrument's response was in the range of 1000-2000 RU (relative units). Unreacted NHS esters were deactivated by injection of 35 μl ethanolamine hydrochloride solution (pH 8.5) at a flow of 5 μl/min. The sensor chip was primed twice with binding buffer and equilibrated at 10 μl/min for 1-2 hours until the baseline appeared stable. For all proteins, kinetic parameters and dissociation constants were evaluated by a series of Spiegelmer injections at concentrations of 1000, 500, 250, 125, 62.5, 31.25, and 0 nM in selection buffer (Tris-HCl, 20 mM; NaCl, 137 mM; KCl, 5 mM; CaCl2, 1 mM; MgCl2, 1 mM; Tween20, 0.1% [w/v]; pH 7.4). In all experiments, the analysis was performed at 37° C. using the Kinject command defining an association time of 180 and a dissociation time of 360 seconds at a flow of 10 μl/min. Data analysis and calculation of dissociation constants (KD) was done with the BIAevaluation 3.0 software (BIACORE AB, Uppsala, Sweden) using the Langmuir 1:1 stochiometric fitting algorithm.
# SDF-1 = SDF-1 (Homo sapiens, UniProt P48061); assay: Inhibition of SDF-1-induced chemotaxis, Jurkat cells; assay type: cell-based; settings: for influence of the PEG-moiety on Spiegelmers potency to inhibit SDF-1 induced chemotaxis: Spiegelmer coupled to 40 kDa PEG at the 5′-end; for pIC50: Spiegelmer, Jurkat cells migrating towards 0.3 nM human SDF-1, 3 h, 37° C., read-out: IC50, cell culture in vitro chemotaxis assay
# Chain of SDF-1 (P48061 22-89): as above
# Experimental: The human T cell leukemia cell line Jurkat, the human leukemic monocyte lymphoma cell line U937, the human pre-B cell leukemia cell line BV-173 and human pre-B ALL cell line Nalm-6 express CXCR4. […] All cells used were obtained from the DSMZ (Braunschweig). All cell lines were cultivated at 37° C. and 5% CO2 in RPMI 1640 medium with Glutamax (Invitrogen, Karlsruhe, Germany) which contains 10% fetal bovine serum, 100 units/ml penicillin and 100 μg/ml streptomycin (Invitrogen, Karlsruhe, Germany). One day before the experiment, cells were seeded in a new T175 flask with a density of 0.3×10^6/ml (Jurkat, U937, BV-173) or 0.75×10^6/ml (Nalm-6), respectively.
# For the experiment, cells were centrifuged (5 min at 300 g), resuspended, counted and washed once with 15 ml HBH (Hanks balanced salt solution containing 1 mg/ml bovine serum albumin and 20 mM HEPES; Invitrogen, Karlsruhe, Germany). Then the cells were resuspended at 1.33×10^6/ml (Jurkat, U937, BV-173) or 2.67×10^6/ml (Nalm-6), respectively. Cells were then allowed to migrate through the porous membranes of the filter plates for three hours towards a solution containing SDF-1 and various amounts of Spiegelmer. The stimulation solutions (SDF-1+various concentrations of Spiegelmer) were made up as 10× solutions in a 0.2 ml low profile 96-tube plate. 212 μl HBH were pipetted into the lower compartments of the transport plate and 23.5 μl of the stimulation solutions were added. All conditions were made up as triplicates. After 20 to 30 min the filter plate was inserted into the plate containing the stimulation solutions and 75 μl of a cell suspension with 1.33×10^6/ml or 2.67×10^6/ml, respectively, were added to the wells of the filter plate (1×10^5 or 2×10^5 cells/well). The cells were then allowed to migrate for 3 h at 37° C. For calibration, 0, 10 and 30 μl of the cell suspension was added to 235, 225 and 205 μl HBH, respectively, in wells of a separate 96-well plate. After 3 hours incubation, the insert plate was removed and 30 μl resazurin working solution (440 μM in PBS) were added to the lower wells and to the wells of the calibration plate. The plates were then incubated at 37° C. for 2.5 h. After incubation, 100 μl of each well were transferred to a black 96 well plate.
# For evaluation, fluorescence values were corrected for background fluorescence (no cells in well). Then the difference between experimental conditions with and without SDF-1 was calculated. The value for the sample without Spiegelmer (SDF-1 only) was set 100% and the values for the samples with Spiegelmer were calculated as percent of this. For a dose-response curve the percent-values were plotted against Spiegelmer concentration and the IC50-value (concentration of Spiegelmer at which 50% of the activity without Spiegelmer is present) was determined graphically from the resulting curve.
# [3] = test system: SDF-1 induced sprouting, rings from rat aorta; assay: Aortic ring sprouting assay; assay type: cell-based; settings: 10 nM SDF-1 + 1 μM Spiegelmer, 6 days
# Experimental: After 6 to 7 days, sprouting (i.e. outgrowth of endothelial cells) was analysed by taking pictures and determining a sprouting index.
# Aortae from male rats were obtained from Bagheri Life sciences (Berlin, Germany). The aortae were prepared freshly and transported on ice in MCDB 131-Medium (Invitrogen, Karlsruhe, Germany) containing 50 units/ml penicillin, 50 μg/ml streptomycin (both Invitrogen, Karlsruhe, Germany) and 2.5 μg/ml fungizone (Cambrex, USA).
# For an experiment a single aorta was transferred to a cell culture dish together with the medium and residual connective tissue was removed. Then the aorta was cut with a scalpel into rings of about 1 to 2 mm length. The rings were washed intensively (at least five times) in Medium199 (Invitrogen, Karlsruhe, Germany) and then placed in wells of a 24 well plate, containing 450 μl of collagen solution per well. […]
# Sprouting was documented by taking pictures with a digital camera. […] Pictures were analysed with the Scion Image image processing software. […] A plot histogram along this line was generated by the software, histograms were printed and peaks (representing sprouts crossing the line) were counted. […] 4 to 5 rings per condition were evaluated. […]
Substance,pKd [1],pKd (human SDF-1α),pIC50 (SDF-1),binding affinity in competitive pull-down binding assay vs. 192-A10-001 [2],further results
CGGGAGGUUAGGGCUAGAAGUCGGUCCCG (chemistry not fully specified) [191-D5-007],8.66,9.10,10.00,–,binding affinity in competitive pull-down binding assay vs. 191-D5-001 ([2]; reference 191-D5-001): somewhat better; influence of the PEG-moiety on Spiegelmers potency to inhibit SDF-1 induced chemotaxis (SDF-1): no influence
GCGUGGUGUGAUCUAGAUGUAUUGGCUGAUCCUAGUCAGGUACGC (chemistry not fully specified) [193-G2-012],9.52,–,–,–,–
"GCUGUGAAAGCAACAUGUCAAUGAAAGGUAGCCGCAGC (aptamer; Made as D-RNA aptamer and L-RNA Spiegelmer, tested form not given here, further chemistry not given here) [192-A10-001]",8.82,–,9.92,–,–
"5′-40 kDa-PEG-UAAGGAAACUCGGUCUGAUGCGGUAGCGCUGUGCAGAGCU (all [L-RNA-N], 5' {PEG40k}, backbone not given here) [Control Spiegelmer, reference compound]",–,–,–,–,"inhibition of SDF-1 induced chemotaxis (SDF-1; Jurkat cells, Control Spiegelmer up to 1 μM): no inhibitory effect; blockage of SDF-1 induced sprouting (sprouting index) [3]: No blockage"
GUGCUGCGGGGGUUAGGGCUAGAAGUCGGCCUGCAGCAC (aptamer; chemistry not fully specified) [197-B2],–,9.05,–,weaker binding affinities,binding affinity in competitive pull-down binding assay vs. 191-D5-007 ([2]; reference 191-D5-007): same binding affinity to SDF-1 as 191-D5-007
"AGCGUGGCGAGGUUAGGGCUAGAAGUCGGUCGACACGCU (Made as D-RNA aptamer and L-RNA Spiegelmer, tested form not given here, further chemistry not given here) [191-D5-001]",–,9.10,–,weaker binding affinities,–
AGCGUGGUGUGAUCUAGAUGUAUUGGCUGAUCCUAGUCAGGUACGCU (chemistry not fully specified) [193-G2-001],9.52,–,10.10,superior binding,–
GCCGGGGUUAGGGCUAGAAGUCGGCCGGC (chemistry not fully specified) [197-B2-006],–,–,–,–,binding affinity of truncated derivatives of 197-B2 ([2]; vs. 197-B2 and 191-D5-007): fully persisted; influence of the PEG-moiety on Spiegelmers potency to inhibit SDF-1 induced chemotaxis (SDF-1): no influence
"GAGAUAGGGGUUAGGGCUUAAAGUCGGCUGAUUCUC (aptamer; Made as D-RNA aptamer and L-RNA Spiegelmer, tested form not given here, further chemistry not given here) [190-A3-004]",8.34,8.33,10.00,–,binding affinity of derivatives of 190-A3-001 ([2]; compared with 190-A3-001): does not have an influence on the binding affinity
